Experimental findings from patent US20260026479A1, “GENETICALLY ENGINEERED MICE MODELS FOR MULTIPLE MYELOMA” (FUNDACIÓN PARA LA INVESTIGACIÓN MÉDICA APLICADA, priority 2022, published 2026) are described below.

One assay concerns murine MM cells. Description: In vitro viability assay, murine MM-derived cell lines. Type of assay: cell-based, mouse. The note with it: 48 hours, Deep Blue Cell Viability Kit. The procedure:
(§1) Mice were monitored twice weekly for signs of disease and were then sacrificed. […] The samples that were able to grow for weeks ex vivo were tested for the presence of the original transgenic lesions and then characterized. Eight MM-derived cells lines established from mice carrying different lesions. In vitro therapy assays. For viability assays, murine or human MM cells were seeded in 96-well black culture plates and treated with different drugs alone or in combination for 48 hours. Cell viability was quantified using a Deep Blue Cell Viability™ Kit (Biolegend) and analyzed with a Skanit Varioskan Flash 2.4.3 (Thermo Scientific) fluorometer. Treatments were administered to cells at a density of 0.3×10^6 cells/ml, and all tests were performed in triplicate. After treatment, cells were subjected to qRT-PCR or Western blot analyses, as indicated, according to previously reported methods.

The next assay has as its system human MM cells. Description: In vitro viability assay, human MM cell lines. Type of assay: cell-based. The note with it: 48 hours, Deep Blue Cell Viability Kit. The procedure:
(§2) Ten cell lines derived from MM patients (RPMI8226, KMS12, KMS26, KMS11, MM1S, U266, K620, JJN3, H929, and MOLP2) were included in this study. All have been validated according to the AmpFLSTR® Identifiler®, were tested for Mycoplasma sp.
as §1

Assay [1] deals with MYC. Nature of the assay: MYC expression and phosphorylation after treatment (Western blot, qRT-PCR), mouse MM cell lines. The format is cell-based. Here is the method:
(§3) A total of 1 μg of total RNA from GFP^+-sorted cells was isolated with a NucleoSpin RNA kit (Macherey-Nagel) and reverse transcribed into cDNA using MMLV enzyme technology (Invitrogen). PCR was performed on an ABI Viia7 instrument using SYBR green fluorophore and primers designed to amplify specific mouse or human genes. Specific primers are listed in the Key Resources Table.
as §1

For assay [2], the target named is T1, MYC (Homo sapiens, UniProt P01106).
T1 construct: Western blot analysis of MYC protein expression in human MM cell lines; endogenous in cells; host or cells: human MM cell lines (of RPMI8226, KMS12, KMS26, KMS11, MM1S, U266, K620, JJN3, H929, MOLP2)
Description: MYC expression and phosphorylation after treatment (Western blot, qRT-PCR), human MM cell lines. The format is cell-based. Here is the method:
as §3, §2
as §1, with “After treatment, cells were subjected to qRT-PCR or Western blot analyses, as indicated, according to previously reported methods.” left out
(In general: In western blotting, separated proteins are transferred to a membrane and probed.)

T1 sequence (P01106 whole entry): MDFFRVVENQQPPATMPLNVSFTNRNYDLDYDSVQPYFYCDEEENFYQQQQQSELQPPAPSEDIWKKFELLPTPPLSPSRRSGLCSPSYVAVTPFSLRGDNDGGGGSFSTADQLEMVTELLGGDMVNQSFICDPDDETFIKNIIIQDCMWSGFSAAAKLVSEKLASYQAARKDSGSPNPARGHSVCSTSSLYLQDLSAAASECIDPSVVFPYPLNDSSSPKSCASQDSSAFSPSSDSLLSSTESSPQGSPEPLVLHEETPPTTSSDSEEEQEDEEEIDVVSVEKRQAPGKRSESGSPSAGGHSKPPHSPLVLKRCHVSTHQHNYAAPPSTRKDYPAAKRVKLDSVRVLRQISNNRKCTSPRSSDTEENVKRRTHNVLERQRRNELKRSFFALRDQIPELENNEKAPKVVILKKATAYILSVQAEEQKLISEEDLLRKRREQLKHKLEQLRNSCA

Consider MYCi975, for which the MM cell viability entry in the assay with murine MM cells and in the assay with human MM cells was “decreased viability” each time. In addition, the MYC protein expression result in the assay with MYC [1] and on MYC [2] was “dose-dependent MYC protein reduction” throughout.
